The source of these data is patent US4207419A, “Prostaglandin derivatives” (American Home Products Corporation, priority 1977, dated 1980).

The test system of experiment [1] is bronchoconstricting effects of a standard dose of acetylcholine. Briefly: Bronchodilation upon aerosol inhalation, method of Rosenthale et al. The experiment is classed as in vivo. The note with it: guinea pig, i.v. acetylcholine producing ca. 30% bronchoconstriction. The source says: In using the compounds of the invention to produce bronchodilating effects in warm-blooded animals, they may be administered in a variety of dosage forms: oral, injectable, and aerosol inhalation. Aerosol inhalation is a preferred method because of its rapid onset of action, great potency, and specificity of action. The particular dosage to obtain the bronchodilating effect will vary with the particular compound employed, the particular animal involved, and the degree of bronchodilation desired. In the guinea pig, by aerosol inhalation, the dose to produce bronchodilation is from about 0.15 micrograms to about 25 micrograms, and preferably from about 0.15 to about 15 micrograms. The bronchodilation produced upon aerosol inhalation can be observed by the method of Rosenthale et al., J. Pharmacol. Exp. Ther., 178, 541 (1971). Using this procedure the following results were obtained:
*The dose (i.v. of acetylcholine which produces a ca. 30%

A short description of experiment [2]: Hypotensive effects in the anesthetized dog by the intravenous route. The experiment is classed as in vivo. The note with it: average of two animals. The method, then:
In the use of the compounds of the invention to produce hypotensive effects in warm-blooded animals, administration by the injectable route is preferred, preferably the intravenous route.
Thus in the anesthetized dog by the intravenous route the dose to produce hypotension is from about 1 μg/kg. to about 200 μg/kg. and preferably from about 10 μg/kg. to about 100 μg/kg. Using this procedure the following results were obtained:
*Average of two animals.

Turning to `CC(C)(Cc1ccccc1)[C@H](O)/C=C/[C@H]1CCC(=O)[C@@H]1CCCCCCC(=O)O` (relative stereo) [dl-2β-[(3R)-3-Hydroxy-4,4-Dimethyl-5-Phenyl-trans-1-Pentenyl]-5-Oxo-Cyclopentane Heptanoic Acid], the “Percent Inhibition of the bronchoconstricting effects of a standard dose of acetylcholine” value in experiment [1] (dose 0.15 μg) came out at 46%; in experiment [1] (dose 1.50 μg), 66%; in experiment [1] (dose 15 μg) it was 60%.

As for `CC(C)(c1ccccc1)[C@H](O)/C=C/[C@H]1CCC(=O)[C@@H]1C/C=C\CCCC(=O)O` (relative stereo) [dl-7-{2β-[(3R)-3-Hydroxy-4,4-Dimethyl-4-Phenyl-trans-1-Butenyl]-5-Oxo-1α-Cyclopentyl}-cis-5-Heptenoic Acid], the “Δ B.P.” value in experiment [2] (dose 10 μg/kg.) was -30 mm. Hg.

With `CC(C)(c1ccccc1)[C@H](O)CC[C@H]1CCC(=O)[C@@H]1CCCCCCC(=O)O` (relative stereo) [dl-2β-[(3R)-3-Hydroxy-4,4-Dimethyl-4-Phenyl-1-Butyl]-5-Oxo-1α-Cyclopentane Heptanoic Acid], the “Δ B.P.” value in experiment [2] (dose 10 μg/kg.) is reported as -14 mm. Hg; in experiment [2] (dose 100 μg/kg.), -26 mm. Hg.
